Read-outs that look alike come from different tables or passages of the source. Where a SMILES comes first, the peptide text is derived from it. Bridges are numbered along the chain shown (N, C = ends). [ ]: non-standard residue; d: D form. Phe(4-Cl) = N[C@@H](Cc1ccc(Cl)cc1)C(=O)O
Tests used:
secretion of glucagon = assay type: in vivo, Male Sprague-Dawley-CD rats
Description: (§1) In vivo Bioassay: Male Sprague-Dawley-CD rats weighing 180-200 g housed in temperature and humidity controlled quarters with 14 h light and 10 h dark (light 0700-[…]) were used in all experiments. Animals were fed a standard ration and tap water ad libitum. Experiments were carried out at least 5 days after arrival of rats from the supplier between the hours 1400 and 1600. After ether anesthesia, peptides or saline were administered in a volume of 0.2 ml via the external jugular vein. Animals remained anesthetized until the time of blood collection from the portal vein. Blood collection was performed at various times after administration of the peptide or saline. The blood samples were placed into chilled tubes containing 10 mg EDTA and 50 μl of 2 M Benzamidine per ml of blood.
(§2) All experiments were carried on in a randomized block design. Following analysis of variance difference between treatmments were determined by the multiple range tests of Dunnett and Duncan. Potency values were calculated from four or six point bioassays.

secretion of insulin = assay type: in vivo, Male Sprague-Dawley-CD rats
Description: as §1, §2

[1] = system: secretion of growth hormone
Description: GH determinations were performed on tissue culture media utilizing the following reagents: NIAMDD rat GH standard (GH-RP-1), NIAMDD monkey anti-rat GH (GH-Serum-3), and highly purified rat GH for iodination.

[2] = somatostatin = 100, peptide via external jugular vein, blood from portal vein, four or six point bioassays

## C[C@H](N)C(=O)NCC(=O)N[C@H]1CSSC[C@@H](C(=O)O)NC(=O)[C@H](CO)NC(=O)[C@H]([C@@H](C)O)NC(=O)[C@H](Cc2ccccc2)NC(=O)[C@H]([C@@H](C)O)NC(=O)[C@H](CCCCN)NC(=O)[C@H](Cc2c[nH]c3ccccc23)NC(=O)[C@H](Cc2ccccc2)NC(=O)[C@H](Cc2ccc(Cl)cc2)NC(=O)[C@H](CC(N)=O)NC(=O)[C@H](CCCCN)NC1=O [[P Cl Phe^6]--SS]
Secretion of glucagon; rat, in vivo
  Relative potency to inhibit the secretion of GLUCAGON: 100
Secretion of insulin; rat, in vivo
  Relative potency to inhibit the secretion of INSULIN: 100

## C[C@H](N)C(=O)NCC(=O)N[C@H]1CSSC[C@@H](C(=O)O)NC(=O)[C@H](CO)NC(=O)[C@H]([C@@H](C)O)NC(=O)[C@H](Cc2ccc(I)cc2)NC(=O)[C@H]([C@@H](C)O)NC(=O)[C@H](CCCCN)NC(=O)[C@@H](Cc2c[nH]c3ccccc23)NC(=O)[C@H](Cc2ccccc2)NC(=O)[C@H](Cc2ccccc2)NC(=O)[C@H](CC(N)=O)NC(=O)[C@H](CCCCN)NC1=O [[P I Phe^11]--D-Trp^8 --SS]
Secretion of glucagon; rat, in vivo
  Relative potency to inhibit the secretion of GLUCAGON: 800
Secretion of insulin; rat, in vivo
  Relative potency to inhibit the secretion of INSULIN: 33

## C[C@@H](O)[C@@H]1NC(=O)[C@H](CCCCN)NC(=O)[C@@H](Cc2c[nH]c3ccccc23)NC(=O)[C@H](Cc2ccccc2)NC(=O)[C@H](Cc2ccc(Cl)cc2)NC(=O)[C@@H](N)CSSC[C@@H](C(=O)O)NC(=O)[C@H](Cc2ccc(Cl)cc2)NC1=O [Des--AA^1,2,4,5,12,13 --[P Cl Phe^6,11]--D-Trp^8 --SS] (H-C[Phe(4-Cl)]F[dW]KT[Phe(4-Cl)]C-OH; disulfide 1-8)
Secretion of glucagon; rat, in vivo
  Relative potency to inhibit the secretion of GLUCAGON: > 1
Secretion of insulin; rat, in vivo
  Relative potency to inhibit the secretion of INSULIN: 27

## C[C@H](N)C(=O)NCC(=O)N[C@H]1CSSC[C@@H](C(=O)O)NC(=O)[C@H](CO)NC(=O)[C@H]([C@@H](C)O)NC(=O)[C@H](Cc2ccccc2)NC(=O)[C@H]([C@@H](C)O)NC(=O)[C@H](CCCCN)NC(=O)[C@@H](Cc2c[nH]c3ccccc23)NC(=O)[C@H](Cc2ccccc2)NC(=O)[C@H](Cc2ccc(I)cc2)NC(=O)[C@H](CC(N)=O)NC(=O)[C@H](CCCCN)NC1=O [[P I Phe^6]--D-Trp^8 --SS]
Secretion of glucagon; rat, in vivo
  Relative potency to inhibit the secretion of GLUCAGON: 100
Secretion of insulin; rat, in vivo
  Relative potency to inhibit the secretion of INSULIN: 100

## C[C@H](N)C(=O)NCC(=O)N[C@H]1CSSC[C@@H](C(=O)O)NC(=O)[C@H](CO)NC(=O)[C@H]([C@@H](C)O)NC(=O)[C@H](Cc2ccccc2)NC(=O)[C@H]([C@@H](C)O)NC(=O)[C@H](CCCCN)NC(=O)[C@H](Cc2c[nH]c3ccccc23)NC(=O)[C@H](Cc2ccccc2)NC(=O)[C@H](Cc2ccccc2)NC(=O)[C@H](CC(N)=O)NC(=O)[C@H](CCCCN)NC1=O [Somatostatin (SS), Somatostatin, reference compound]
Secretion of glucagon; [2]
  Relative potency to inhibit the secretion of GLUCAGON: 100
Secretion of insulin; [2]
  Relative potency to inhibit the secretion of INSULIN: 100
[1]; somatostatin = 100, GH in tissue culture media, four or six point bioassays
  Relative potency to inhibit the secretion of GH (growth hormone): 100

## C[C@H](N)C(=O)NCC(=O)N[C@H]1CSSC[C@@H](C(=O)O)NC(=O)[C@@H](CO)NC(=O)[C@H]([C@@H](C)O)NC(=O)[C@H](Cc2ccc(Cl)cc2)NC(=O)[C@H]([C@@H](C)O)NC(=O)[C@H](CCCCN)NC(=O)[C@@H](Cc2c[nH]c3ccccc23)NC(=O)[C@H](Cc2ccc(Cl)cc2)NC(=O)[C@H](Cc2ccc(Cl)cc2)NC(=O)[C@H](CCCCN)NC1=O [Des--Asn^5 --[P Cl Phe^6,7,11]--D-Trp^8 --D--Ser^13 --SS] (H-AGCK[Phe(4-Cl)][Phe(4-Cl)][dW]KT[Phe(4-Cl)]T[dS]C-OH; disulfide 3-13)
Secretion of glucagon; rat, in vivo
  Relative potency to inhibit the secretion of GLUCAGON: > 1
Secretion of insulin; rat, in vivo
  Relative potency to inhibit the secretion of INSULIN: 127

## C[C@H](N)C(=O)NCC(=O)N[C@H]1CSSC[C@@H](C(=O)O)NC(=O)[C@H](CO)NC(=O)[C@H]([C@@H](C)O)NC(=O)[C@H](Cc2ccc(I)cc2)NC(=O)[C@H]([C@@H](C)O)NC(=O)[C@H](CCCCN)NC(=O)[C@H](Cc2c[nH]c3ccccc23)NC(=O)[C@H](Cc2ccccc2)NC(=O)[C@H](Cc2ccccc2)NC(=O)[C@H](CC(N)=O)NC(=O)[C@H](CCCCN)NC1=O [[P I Phe^11]--SS]
Secretion of glucagon; rat, in vivo
  Relative potency to inhibit the secretion of GLUCAGON: 900
Secretion of insulin; rat, in vivo
  Relative potency to inhibit the secretion of INSULIN: 950
[1]
  Relative potency to inhibit the secretion of GH (growth hormone): 100

## C[C@H](N)C(=O)NCC(=O)N[C@H]1CSSC[C@@H](C(=O)O)NC(=O)[C@H](CO)NC(=O)[C@H]([C@@H](C)O)NC(=O)[C@H](Cc2ccccc2)NC(=O)[C@H]([C@@H](C)O)NC(=O)[C@H](CCCCN)NC(=O)[C@@H](Cc2c[nH]c3ccccc23)NC(=O)[C@H](Cc2ccc(I)cc2)NC(=O)[C@H](Cc2ccccc2)NC(=O)[C@H](CC(N)=O)NC(=O)[C@H](CCCCN)NC1=O [[P I Phe^7]--D-Trp^8 --SS]
Secretion of glucagon; rat, in vivo
  Relative potency to inhibit the secretion of GLUCAGON: 100
Secretion of insulin; rat, in vivo
  Relative potency to inhibit the secretion of INSULIN: 100

## C[C@H](N)C(=O)NCC(=O)N[C@H]1CSSC[C@@H](C(=O)O)NC(=O)[C@H](CO)NC(=O)[C@H]([C@@H](C)O)NC(=O)[C@H](Cc2ccc(Cl)cc2)NC(=O)[C@H]([C@@H](C)O)NC(=O)[C@H](CCCCN)NC(=O)[C@H](Cc2c[nH]c3ccccc23)NC(=O)[C@H](Cc2ccc(Cl)cc2)NC(=O)[C@H](Cc2ccc(Cl)cc2)NC(=O)[C@H](CC(N)=O)NC(=O)[C@H](CCCCN)NC1=O [[P Cl Phe^6,7,11]--SS]
Secretion of glucagon; rat, in vivo
  Relative potency to inhibit the secretion of GLUCAGON: 900
Secretion of insulin; rat, in vivo
  Relative potency to inhibit the secretion of INSULIN: 800
[1]
  Relative potency to inhibit the secretion of GH (growth hormone): 78
